Marks after values point to notes of the source that are not given here.
Assays:
[1] = system: IL-2 production; conditions: in vitro; cited from earlier work
[2] = target: peripheral BZ receptors (Homo sapiens, UniProt P30536); conditions: cited from earlier work
[3] = system: lymphocyte; conditions: in vitro; cited from earlier work
[4] = system: central benzodiazepine (BZ) receptors; conditions: cited from earlier work
[5] = system: neutrophil production (absolute neutrophil count); assay: Increase in neutrophil production in 16-day study in rat; type: in vivo
Description: Animals were identified using an implanted microchip identification device encoded with a unique number. Each animal was dosed daily via oral gavage with either a test substance (R-tofisopam) or control, starting on Day 1 and through day 15. The control article was 0.5% low viscosity carboxymethylcellulose (CMC) (Lot No. 74231) and 0.4% Tween 80® (lot no. QJ1033) in reverse osmosis water.
The animals were sacrificed on Day 16 (with the exception of three males and one female which died on test or was sacrificed before the scheduled termination, and which are not included in the mean neutrophil count data). Neutrophil counts in Table 2, below, are reported as a mean value of the count for the animals of each group surviving and sacrificed on Day 16.
The normal range of absolute neutrophil counts is […] for male and 0.2–2.4×10^3 cells/μL for female rats. For each sex, groups 2–4 were compared with the control group (Group 1M or 1F). Group comparisons were evaluated at the 5.0%, two-tailed probability level. Data marked with * represents a statistically significant difference from the corresponding control group.

[6] = in vivo; cited from earlier work
[7] = female rats, group 2F, 100 mg/kg/day oral gavage days 1-15
[8] = female rats, group 3F, 200 mg/kg/day oral gavage days 1-15
[9] = female rats, group 4F, 400 mg/kg/day oral gavage days 1-15
[10] = male rats, group 2M, 100 mg/kg/day oral gavage days 1-15
[11] = male rats, group 3M, 200 mg/kg/day oral gavage days 1-15
[12] = male rats, group 4M, 400 mg/kg/day oral gavage days 1-15

Chain of peripheral BZ receptors (P30536 whole entry): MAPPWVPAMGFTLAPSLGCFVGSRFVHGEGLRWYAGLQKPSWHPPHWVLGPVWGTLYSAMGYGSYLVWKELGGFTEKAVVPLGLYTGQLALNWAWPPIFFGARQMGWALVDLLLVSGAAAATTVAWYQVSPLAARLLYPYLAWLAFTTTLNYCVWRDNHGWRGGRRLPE

Molecule: CCC1C(C)=NN=C(c2ccc(OC)c(OC)c2)c2cc(OC)c(OC)cc21 (racemic) [tofisopam]
- IL-2 production [1]: enhances
- binding to peripheral BZ receptors [2]: binds only weakly
- mitogen-induced lymphocyte proliferation [3]: enhances
- interaction with central benzodiazepine (BZ) receptors [4]: does not interact

Molecule: CC[C@H]1C(C)=NN=C(c2ccc(OC)c(OC)c2)c2cc(OC)c(OC)cc21 [R-tofisopam, (R)-1-(3,4-dimethoxyphenyl)-4-methyl-5-ethyl-7,8-dimethoxy-5H-2,3-benzodiazepine]
- Mean % change (day 16) [5, 7]: 29* %
- Mean Neutrophil count (day 16) [5, 7]: 2.4* × 10^3/μL
- Mean % change (day 16) [5, 8]: 47* %
- Mean Neutrophil count (day 16) [5, 8]: 6.0* × 10^3/μL
- Mean % change (day 16) [5, 9]: 63* %
- Mean Neutrophil count (day 16) [5, 9]: 11.6* × 10^3/μL
- neutrophil levels versus control group ([5]; male and female rats, 100-400 mg/kg/day oral gavage, 5.0% two-tailed probability level): significantly increased in a dose-dependant manner
- Mean % change (day 16) [5, 10]: 43* %
- Mean Neutrophil count (day 16) [5, 10]: 5.7* × 10^3/μL
- Mean % change (day 16) [5, 11]: 45* %
- Mean Neutrophil count (day 16) [5, 11]: 7.4* × 10^3/μL
- Mean % change (day 16) [5, 12]: 57* %
- Mean Neutrophil count (day 16) [5, 12]: 12.9* × 10^3/μL

B1: Nupogen: recombinant version of a human protein, G-CSF (granulocyte-colony stimulating factor) (protein, chains of the INN, looked up)
chain: MTPLGPASSLPQSFLLKCLEQVRKIQGDGAALQEKLCATYKLCHPEELVLLGHSLGIPWAPLSSCPSQALQLAGCLSQLHSGLFLYQGLLQALEGISPELGPTLDTLQLDVADFATTIWQQMEELGMAPALQPTQGAMPAFASAFQRRAGGVLVASHLQSFLEVSYRVLRHLAQP
- elimination half-life [6]: 3.5 h

B2: Neulasta: a longer acting derivative of filgrastim (protein, chains of the INN, looked up)
chain: TPLGPASSLPQSFLLKCLEQVRKIQGDGAALQEKLCATYKLCHPEELVLLGHSLGIPWAPLSSCPSQALQLAGCLSQLHSGLFLYQGLLQALEGISPELGPTLDTLQLDVADFATTIWQQMEELGMAPALQPTQGAMPAFASAFQRRAGGVLVASHLQSFLEVSYRVLRHLAQP
modifications: PEG 20 kDa
notes: a longer acting derivative of filgrastim
- elimination half-life [6]: 15 to 80 h

Source: US7022700B2, “Method of increasing neutrophil production using optically-pure (R)-2,3-benzodiazepines” (Vela Pharmaceuticals, Inc., priority 2002, dated 2006)
